This is an account of results in patent US6875761B2 (Eisai Co., Ltd., priority 1997, dated 2005).

Where a name gives a salt, the structure may show the parent alone.

`CCN1CCN(c2nc(-c3ccc(OCCCC(C)(C)O)cc3)cc3sccc23)CC1` (as salt: hydrochloride) [Example 292, 6-[4-(4-methyl-4-hydroxypentyloxy)phenyl]-4-(4-ethylpiperazin-1-yl)thieno[3,2-c]pyridine] returned a melting point of 116 to 118 °C.

As to `CCCN1CCN(c2nc(-c3ccc(OCCO)cc3)cc3sccc23)CC1` (as salt: hydrochloride) [Example 293, 4-(4-propylpiperazin-1-yl)-6-[4-(2-hydroxyethoxy)phenyl]thieno[3,2-c]pyridine], the melting point fell in the range of 128 to 130 °C.

The molecule `CC(C)(O)COc1ccc(-c2cc3sccc3c(N3CCN(CCF)CC3)n2)cc1` (as salt: hydrochloride) [Example 294, 6-[4-(2-methyl-2-hydroxypropoxy)phenyl]-4-[4-(2-fluoroethyl)piperazin-1-yl]thieno[3,2-c]pyridine] yielded a melting point of 135 to 137 °C.

Consider `OCCOc1ccc(-c2cc3sccc3c(N3CCN(CCF)CC3)n2)cc1` (as salt: hydrochloride) [Example 295, 4-[4-(2-fluoroethyl)piperazin-1-yl]-6-[4-(2-hydroxyethoxy)phenyl]thieno[3,2-c]pyridine], for which the melting point lay within 138 to 140 °C.

`CC(C)(O)COc1ccc(-c2cc3sccc3c(N3CCN(CCO)CC3)n2)cc1` (as salt: hydrochloride) [Example 296, 6-[4-(2-methyl-2-hydroxypropoxy)phenyl]-4-[4-(2-hydroxyethyl)piperazin-1-yl]thieno]3,2-c]pyridine hydrochloride] had a melting point of 139 to 142 °C.

In turn, `CC(C)(O)COc1ccc(-c2cc3sccc3c(N3CCN(CCc4ccccc4)CC3)n2)cc1` (as salt: hydrochloride) [Example 297, 6-[4-(2-methyl-2-hydroxypropoxy)phenyl]-4-[4-(2-phenylethyl)piperazin-1-yl]thieno[3,2-c]pyridine] displayed a melting point of 140 to 142 °C.

As for `CCN1CCN(c2nc(-c3cccc(OCCO)c3)cc3ccoc23)CC1` (as salt: hydrochloride) [Example 298, 7-(1-ethylpiperazin-4-yl)-5-[3-(2-hydroxyethoxy)phenyl]furo[2,3-c]pyridine dihydrochloride], the melting point is 117 to 121 °C.

Turning to `CCN1CCN(c2nc(-c3ccc(CCCO)cc3)cc3ccoc23)CC1` (as salt: hydrochloride) [Example 299, 7-(1-ethylpiperazin-4-yl)-5-[4-(3-hydroxypropyl)phenyl]furo[2,3-c]pyridine dihydrochloride], the melting point lay in the range of 126 to 130 °C.

On to `CCN1CCN(c2nc(-c3ccc(CCC(C)O)cc3)cc3ccoc23)CC1` (centres unmarked) (as salt: hydrochloride) [Example 300, 7-(1-ethylpiperazin-4-yl)-5-[4-(3-hydroxybutyl)phenyl]furo[2,3-c]pyridine dihydrochloride], for which the melting point is 175 to 177 °C.

In turn, `CCN1CCN(c2nc(-c3ccc(OCC(C)(C)O)cc3)cc3ccccc23)CC1` (as salt: hydrochloride) [Example 309, 1-(1-ethylpiperazin-4-yl)-3-[4-(2-hydroxy-2-methylpropoxy)phenyl]isoquinoline dihydrochloride] showed a melting point of 129 to 134 °C.

Consider `COc1ccc(-c2cc3ccccc3c(N3CCN(CC(N)=O)CC3)n2)cc1` (as salt: hydrochloride) [Example 314, 1-[1-(carbamoylmethyl)piperazin-4-yl]-3-(4-methoxyphenyl)isoquinoline dihydrochloride], for which the melting point was in the range of 153 to 155 °C.

The molecule `COc1ccc(-c2cc3ccccc3c(N(C)CCN(C)C)n2)cc1` (as salt: hydrochloride) [Example 319, 1-{N-[2-(2-dimethylamino)ethyl]-N-methylamino}-3-(4-methoxyphenyl)isoquinoline dihydrochloride] gave a melting point of 160 to 162 °C.

Turning to `COc1ccc(-c2cc3ccccc3c(NCCN3CCOCC3)n2)cc1` (as salt: hydrochloride) [Example 323, 1-[2-(4-morpholinyl)ethyl]amino-3-(4-methoxyphenyl)isoquinoline dihydrochloride], the melting point was in the range of 135 to 136 °C.

On to `COc1ccc(-c2cc3ccccc3c(N3CCC(N4CCCCC4)CC3)n2)cc1` (as salt: hydrochloride) [Example 325, 1-[4-(piperidin-1-yl)piperidine-1-yl]-3-(4-methoxyphenyl)isoquinoline dihydrohcloride], for which the melting point lay within 223 to 238 °C.

Regarding `CCN1CCN(c2nc(-c3ccc4c(c3)OCCO4)cc3ccccc23)CC1` (as salt: hydrochloride) [Example 332, 1-(4-ethylpiperazin-1-yl)-3-(3,4-ethylenedioxyphenyl)isoquinoline dihydrochloride], the melting point lay in the range of 141 to 143 °C.

For the molecule `CCN1CCN(c2nc(-c3ccc(CCCOC)cc3)cc3ccccc23)CC1` (as salt: hydrochloride) [Example 333, 1-(4-ethylpiperazin-1-yl)-3-[4-(3-(methoxypropyl)phenyl]isoquinolinedihydrochloride], the melting point is 191 to 192 °C (dec.).

In the case of `CCN1CCN(c2nc(-c3cc(OC)ccn3)cc3ccccc23)CC1` (as salt: hydrochloride) [Example 335, 1-(4-ethylpiperazin-1-yl)-3-(4-methoxypyridin-2-yl)isoquinoline dihydrochloride], the melting point is 172 to 173 °C (dec.).

Take `CCN1CCN(c2nc(-c3ccc(OCC(O)CO)cc3)cc3ccccc23)CC1` (centres unmarked) (as salt: hydrochloride) [Example 337, 1-(4-ethylpiperazin-1-yl)-3-[4-(2,3-dihydroxypropoxy)phenyl]isoquinoline dihydrochloride]: the melting point was 133 to 135 °C (dec.).

Molecule `CCN1CCN(c2nc(-c3ccc(OC(F)(F)F)cc3)cc3ccccc23)CC1` (as salt: hydrochloride) [Example 339, 1-(4-ethylpiperazin-1-yl)-3-(4-trifluoromethoxyphenyl)isoquinoline dihydrochloride] gave a melting point of 113 to 115 °C.

Consider `CCN1CCN(c2nc(-c3ccc(OCCO)c(OC)c3)cc3ccccc23)CC1` (as salt: hydrochloride) [Example 340, 1-(4-ethylpiperazin-1-yl)-3-[4-(2-hydroxyethoxy)-3-methoxyphenyl]isoquinoline dihydrochloride], for which the melting point fell in the range of 128 to 129 °C.

Consider `CCN1CCN(c2nc(-c3ccc(SC)cc3)cc3ccccc23)CC1` (as salt: hydrochloride) [Example 341, 1-(4-ethylpiperazin-1-yl)-3-(4-methylthiophenyl)isoquinoline dihdyrochloride], for which the melting point was 215 to 218 °C (dec.).

Regarding `CCN1CCN(c2nc(-c3ccc(S(C)(=O)=O)cc3)cc3ccccc23)CC1` (as salt: hydrochloride) [Example 342, 1-(4-ethylpiperazin-1-yl)-3-(4-methylsulfonylphenyl)isoquinoline dihydrochloride], the melting point is 216.5 to 218 °C (dec.).

With `CCN1CCN(c2nc(-c3ccc(OCC(O)COC)cc3)cc3ccccc23)CC1` (centres unmarked) (as salt: hydrochloride) [Example 343, 1-(4-ethylpiperazin-1-yl)-3-[4-(2-hydroxy-3-methoxypropoxy)phenyl]isoquinoline dihydrochloride], the melting point was 216.5 to 218 °C (dec.).
